In patent publication US6737383B1, “Herbicidal oxadiazolidines” (priority 1999, dated 2004):

Legend:
blackgrass = assay: Test B pre/postemergence blackgrass; format: in vivo, Alopecurus myosuroides
Summary of the method: (§1)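 Herbicidal effect was estimated by eye on a ten-point control scale after plants spent twelve to sixteen days in a greenhouse following soil or foliar treatment. Foliar sprays targeted plants at one to four leaves; all doses were formulated in a non-phytotoxic solvent with surfactant.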

surinam grass = assay: Test B pre/postemergence surinam grass; format: in vivo, Brachiaria decumbens
Summary of the method: as §1

cocklebur = assay: Test B pre/postemergence cocklebur; format: in vivo, Xanthium strumarium
Summary of the method: as §1

corn = assay: Test B pre/postemergence corn; format: in vivo, Zea mays
Summary of the method: as §1

crabgrass = assay: Test B pre/postemergence crabgrass; format: in vivo, Digitaria sanguinalis
Summary of the method: as §1

giant foxtail = assay: Test B pre/postemergence giant foxtail; format: in vivo, Setaria faberii
Summary of the method: as §1

morningglory = assay: Test B pre/postemergence morningglory; format: in vivo, Ipomoea hederacea
Summary of the method: as §1

pigweed = assay: Test B pre/postemergence pigweed; format: in vivo, Amaranthus retroflexus
Summary of the method: as §1

rape = assay: Test B pre/postemergence rape; format: in vivo, Brassica napus
Summary of the method: as §1

soybean = assay: Test B pre/postemergence soybean; format: in vivo, Glycine max
Summary of the method: as §1

sugar beet = assay: Test B pre/postemergence sugar beet; format: in vivo, Beta vulgaris
Summary of the method: as §1

velvetleaf = assay: Test B pre/postemergence velvetleaf; format: in vivo, Abutilon theophrasti
Summary of the method: as §1

wheat = assay: Test B pre/postemergence wheat; format: in vivo, Triticum aestivum
Summary of the method: as §1

wild oat = assay: Test B pre/postemergence wild oat; format: in vivo, Avena fatua
Summary of the method: as §1

purple nutsedge = assay: Test B pre/postemergence purple nutsedge; format: in vivo, Cyperus rotundus
Summary of the method: as §1

rice = assay: Test B flood test rice; format: in vivo, Oryza sativa
Summary of the method: (§2)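 Flood test on plants grown to the 2-leaf stage; treated plants kept in greenhouse twelve to sixteen days, then visually rated against controls on a 0 (no effect) to 10 (complete control) scale.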

smallflower flatsedge = assay: Test B flood test smallflower flatsedge; format: in vivo, Cyperus difformis
Summary of the method: as §2

duck salad = assay: Test B flood test duck salad; format: in vivo, Heteranthera limosa; conditions: for Plant response rating, Ducksalad: scale 0 to 10, 0 is no effect, 10 is complete control; for Ducksalad plant response rating: scale of 0 to 10 where 0 is no effect and 10 is complete control
Summary of the method: as §2

bamyardgrass = assay: Test B flood test barnyardgrass; format: in vivo, Echinochloa crus-galli; conditions: for Plant response rating, Barnyardgrass: scale 0 to 10, 0 is no effect, 10 is complete control; for Barnyardgrass plant response rating: scale of 0 to 10 where 0 is no effect and 10 is complete control
Summary of the method: as §2

[1] = Postemergence, Rate 125 g/ha, scale 0 to 10, 0 is no effect, 10 is complete control
[2] = Postemergence, Rate 250 g/ha, scale 0 to 10, 0 is no effect, 10 is complete control
[3] = Postemergence, Rate 500 g/ha, scale of 0 to 10 where 0 is no effect and 10 is complete control
[4] = Preemergence, Rate 62 g/ha, scale 0 to 10 (0 no effect, 10 complete control)
[5] = Preemergence, Rate 125 g/ha, scale of 0 to 10 where 0 is no effect and 10 is complete control
[6] = Preemergence, Rate 250 g/ha, scale of 0 to 10 where 0 is no effect and 10 is complete control
[7] = Preemergence, Rate 500 g/ha, scale 0 to 10, 0 is no effect, 10 is complete control
[8] = Rate 62 g/ha, Postemergence, scale of 0 to 10 where 0 is no effect and 10 is complete control
[9] = Preemergence, Rate 250 g/ha, scale 0 to 10, 0 is no effect, 10 is complete control
[10] = Postemergence section (flood test species), Rate 500 g/ha, scale of 0 to 10 where 0 is no effect and 10 is complete control
[11] = flood test species, listed under Postemergence, Rate 250 g/ha, scale 0 to 10, 0 is no effect, 10 is complete control
[12] = Postemergence (flood test), Rate 125 g/ha
[13] = Postemergence section (flood test species), Rate 500 g/ha
[14] = Rate 62 g/ha, Postemergence (flood test species)
[15] = flood test species, listed under Postemergence, Rate 250 g/ha

Compound: CC(C)N(C(=O)n1oc(=O)n(CCBr)c1=O)c1ccccc1 [Compound 415]
- Plant response rating, Blackgrass (blackgrass; [1]): 3
- Plant response rating, Blackgrass (blackgrass; [2]): 8
- Blackgrass plant response rating (blackgrass; [3]): 9
- Plant response rating, Blackgrass (blackgrass; [4]): 5
- Plant response rating, Blackgrass (blackgrass; [5]): 5
- Blackgrass plant response rating (blackgrass; [6]): 9
- Blackgrass plant response rating (blackgrass; [7]): 9
- Blackgrass plant response rating (blackgrass; [8]): 0
- Plant response rating, B. signalgrass (surinam grass; [1]): 0
- Plant response rating, B. signalgrass (surinam grass; [2]): 2
- B. signalgrass plant response rating (surinam grass; [3]): 6
- Plant response rating, B. signalgrass (surinam grass; [4]): 2
- Plant response rating, B. signalgrass (surinam grass; [5]): 3
- B. signalgrass plant response rating (surinam grass; [6]): 6
- B. signalgrass plant response rating (surinam grass; Preemergence, Rate 500 g/ha, scale of 0 to 10 where 0 is no effect and 10 is complete control): 6
- B. signalgrass plant response rating (surinam grass; [8]): 0
- Plant response rating, Cocklebur (cocklebur; [1]): 0
- Plant response rating, Cocklebur (cocklebur; [2]): 1
- Cocklebur plant response rating (cocklebur; [3]): 4
- Plant response rating, Cocklebur (cocklebur; [4]): 0
- Plant response rating, Cocklebur (cocklebur; [5]): 0
- Cocklebur plant response rating (cocklebur; [9]): 0
- Cocklebur plant response rating (cocklebur; [7]): 0
- Cocklebur plant response rating (cocklebur; [8]): 0
- Plant response rating, Corn (corn; [1]): 0
- Plant response rating, Corn (corn; [2]): 1
- Corn plant response rating (corn; [3]): 2
- Plant response rating, Corn (corn; [4]): 0
- Plant response rating, Corn (corn; [5]): 2
- Corn plant response rating (corn; [9]): 3
- Corn plant response rating (corn; [7]): 4
- Corn plant response rating (corn; [8]): 0
- Plant response rating, Crabgrass (crabgrass; [1]): 1
- Plant response rating, Crabgrass (crabgrass; [2]): 8
- Crabgrass plant response rating (crabgrass; [3]): 9
- Plant response rating, Crabgrass (crabgrass; [4]): 8
- Plant response rating, Crabgrass (crabgrass; [5]): 8
- Crabgrass plant response rating (crabgrass; [9]): 9
- Crabgrass plant response rating (crabgrass; [7]): 10
- Crabgrass plant response rating (crabgrass; [8]): 0
- Plant response rating, Giant foxtail (giant foxtail; [1]): 8
- Plant response rating, Giant foxtail (giant foxtail; [2]): 9
- Giant foxtail plant response rating (giant foxtail; [3]): 9
- Plant response rating, Giant foxtail (giant foxtail; [4]): 9
- Plant response rating, Giant foxtail (giant foxtail; [5]): 10
- Giant foxtail plant response rating (giant foxtail; [9]): 10
- Giant foxtail plant response rating (giant foxtail; [7]): 10
- Giant foxtail plant response rating (giant foxtail; [8]): 5
- Plant response rating, Morningglory (morningglory; [2]): 6
- Morningglory plant response rating (morningglory; [3]): 7
- Plant response rating, Morningglory (morningglory; [4]): 0
- Plant response rating, Morningglory (morningglory; [5]): 0
- Morningglory plant response rating (morningglory; [9]): 0
- Morningglory plant response rating (morningglory; [7]): 0
- Plant response rating, Redroot pigweed (pigweed; [2]): 0
- Redroot pigweed plant response rating (pigweed; [3]): 3
- Plant response rating, Redroot pigweed (pigweed; [4]): 0
- Plant response rating, Redroot pigweed (pigweed; [5]): 0
- Redroot pigweed plant response rating (pigweed; [9]): 6
- Redroot pigweed plant response rating (pigweed; [7]): 10
- Plant response rating, Rape (rape; [2]): 0
- Rape plant response rating (rape; [3]): 1
- Plant response rating, Rape (rape; [4]): 2
- Plant response rating, Rape (rape; [5]): 6
- Rape plant response rating (rape; [9]): 10
- Rape plant response rating (rape; [7]): 10
- Plant response rating, Soybean (soybean; [2]): 4
- Soybean plant response rating (soybean; [3]): 7
- Plant response rating, Soybean (soybean; [4]): 0
- Plant response rating, Soybean (soybean; [5]): 0
- Soybean plant response rating (soybean; [9]): 0
- Soybean plant response rating (soybean; [7]): 0
- Plant response rating, Sugarbeets (sugar beet; [2]): 0
- Sugarbeets plant response rating (sugar beet; [3]): 0
- Plant response rating, Sugarbeets (sugar beet; [4]): 0
- Plant response rating, Sugarbeets (sugar beet; [5]): 0
- Sugarbeets plant response rating (sugar beet; [9]): 6
- Sugarbeets plant response rating (sugar beet; [7]): 8
- Plant response rating, Velvetleaf (velvetleaf; [2]): 2
- Velvetleaf plant response rating (velvetleaf; [3]): 2
- Plant response rating, Velvetleaf (velvetleaf; [4]): 0
- Plant response rating, Velvetleaf (velvetleaf; [5]): 2
- Velvetleaf plant response rating (velvetleaf; [9]): 6
- Velvetleaf plant response rating (velvetleaf; [7]): 7
- Wheat plant response rating (wheat; [3]): 3
- Plant response rating, Wheat (wheat; [4]): 0
- Plant response rating, Wheat (wheat; [5]): 0
- Wheat plant response rating (wheat; [9]): 2
- Wheat plant response rating (wheat; [7]): 3
- Wild oats plant response rating (wild oat; [3]): 3
- Plant response rating, Wild oats (wild oat; [4]): 0
- Plant response rating, Wild oats (wild oat; [5]): 3
- Wild oats plant response rating (wild oat; [9]): 6
- Wild oats plant response rating (wild oat; [7]): 6
- Plant response rating, Nutsedge (purple nutsedge; [2]): 0
- Nutsedge plant response rating (purple nutsedge; [3]): 0
- Plant response rating, Nutsedge (purple nutsedge; [4]): 0
- Plant response rating, Nutsedge (purple nutsedge; [5]): 0
- Nutsedge plant response rating (purple nutsedge; [9]): 0
- Nutsedge plant response rating (purple nutsedge; [7]): 0
- Rice plant response rating (rice; [10]): 0
- Plant response rating, Rice (rice; [11]): 0
- S. Flatsedge plant response rating (smallflower flatsedge; [10]): 3
- Plant response rating, S. Flatsedge (smallflower flatsedge; [11]): 3
- Plant response rating, Ducksalad (duck salad; [12]): 0
- Ducksalad plant response rating (duck salad; [13]): 0
- Ducksalad plant response rating (duck salad; [14]): 0
- Plant response rating, Ducksalad (duck salad; [15]): 0
- Plant response rating, Barnyardgrass (bamyardgrass; [12]): 0
- Barnyardgrass plant response rating (bamyardgrass; [13]): 0
- Barnyardgrass plant response rating (bamyardgrass; [14]): 0
- Plant response rating, Barnyardgrass (bamyardgrass; [15]): 0
